# Measured values published in patent US10961215B2, “N-aryl and N-heteroaryl piperidine derivatives as liver X receptor beta agonists, compositions, and their use” (Merck Sharp & Dohme Corp., priority 2016, dated 2021).
# Legend:
# [1] = target: T1, GST tagged LXRalpha LBD (ligand binding domain) (Homo sapiens, UniProt Q13133); assay: LanthaScreen TR-FRET Liver X Receptor Coactivator Assay, LXR alpha-LBD (co-activator recruitment; IP and % Emax relative to T0901317); format: biochemical; settings: for LXR alpha IP (nM) / EC50: Inflection Point of co-activator recruitment, LXR alpha-LBD, TR-FRET; for Emax: efficacy at max dose in relation to reference T0901317, LXR alpha-LBD, read-out: LXR alpha actiivty at max dose (%)
# T1 construct: purchased Invitrogen pv4655
# T1 sequence (Q13133 209-447 limits assumed): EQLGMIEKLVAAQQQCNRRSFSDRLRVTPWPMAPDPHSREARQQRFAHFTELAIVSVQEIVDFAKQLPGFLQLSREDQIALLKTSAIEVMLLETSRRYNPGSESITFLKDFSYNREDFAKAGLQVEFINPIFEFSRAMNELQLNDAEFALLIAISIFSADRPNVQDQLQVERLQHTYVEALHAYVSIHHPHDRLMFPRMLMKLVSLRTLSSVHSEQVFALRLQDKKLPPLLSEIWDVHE
# How it was run: (§1)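 Readout is time-resolved FRET between a terbium anti-GST antibody bound to the tagged LBD and a fluorescein-labelled coactivator peptide recruited on ligand binding. Samples are incubated at room temperature before reading, and efficacy is expressed against T0901317.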
# [2] = target: T2, GST tagged LXRbeta LBD (ligand binding domain) (Homo sapiens, UniProt P55055); assay: LanthaScreen TR-FRET Liver X Receptor Coactivator Assay, LXR beta-LBD (co-activator recruitment; IP and % Emax relative to T0901317); format: biochemical; settings: for EC50: Inflection Point of co-activator recruitment, LXR beta-LBD, TR-FRET; for Emax: efficacy at max dose in relation to reference T0901317, LXR beta-LBD, read-out: LXR beta actiivty at max dose (%)
# T2 construct: purchased Invitrogen pv4658.pps
# T2 sequence (P55055 222-460 limits assumed): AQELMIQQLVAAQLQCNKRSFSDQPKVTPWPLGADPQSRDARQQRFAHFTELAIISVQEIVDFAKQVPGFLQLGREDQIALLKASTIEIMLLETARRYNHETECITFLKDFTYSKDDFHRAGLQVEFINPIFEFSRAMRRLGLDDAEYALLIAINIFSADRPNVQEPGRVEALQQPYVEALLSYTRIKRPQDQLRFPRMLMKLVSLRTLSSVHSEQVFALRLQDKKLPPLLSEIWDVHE
# How it was run: as §1
LXR alpha IP (nM) [1],Emax [1] [%],EC50 [2] [nM],Emax [2] [%],EC50 [1] [nM],SMILES
No IP,0,105,44,,"CN(C)C(=O)c1ccc(N2CCC(CCCN(C)C(=O)[C@](O)(c3cccc(OC4CC4)c3)C(F)(F)F)CC2)nc1Cl [Example 1-41, (R)-2-chloro-6-(4-(3-(2-(3-cyclopropoxyphenyl)-3,3,3-trifluoro-2-hydroxy-N-methylpropanamido)propyl)piperidin-1-yl)-N,N-dimethylnicotinamide]"
,31,1190,101,10300,"CN(C)C(=O)c1ccc(N2CCC(CCCNC(=O)[C@](O)(c3cccc(O)c3)C(F)(F)F)CC2)nc1Cl [Example 5-22, (R)-2-chloro-N,N-dimethyl-6-(4-(3-(3,3,3-trifluoro-2-hydroxy-2-(3-hydroxyphenyl)propanamido)propyl)piperidin-1-yl)nicotinamide]"
No IP,14,270,85,,"CN(C)C(=O)c1ccc(N2CCC(CC3CC(NC(=O)[C@](O)(c4ccccc4)C(F)(F)F)C3)CC2)cc1Cl (stereo partly drawn) [Example 11-4, (R)-2-chloro-N,N-dimethyl-4-(4-((3-(3,3,3-trifluoro-2-hydroxy-2-phenylpropanamido)cyclobutyl)methyl)piperidin-1-yl)benzamide]"
No IP,18,62,63,,"CN(C)C(=O)c1ccc(N2CCC(CCCN(C)C(=O)[C@@](O)(c3cccc(OC(F)F)c3)C(F)(F)F)CC2)nc1Cl [Example 1-50, (S)-2-chloro-6-(4-(3-(2-(3-(difluoromethoxy)phenyl)-3,3,3-trifluoro-2-hydroxy-N-methyl-propanamido)propyl)piperidin-1-yl)-N,N-dimethylnicotinamide]"
No IP,7,653,53,,"CNC(=O)c1ccc(N2CCC(CC3CC(NC(=O)[C@](O)(c4cccc(OC)c4)C(F)(F)F)C3)CC2)cc1Cl (stereo partly drawn) [Example 11-5, (R)-2-chloro-N-methyl-4-(4-((3-(3,3,3-trifluoro-2-hydroxy-2-(3-methoxyphenyl)propanamido)cyclobutyl)methyl)piperidin-1-yl)benzamide]"
No IP,0,557,27,,"COc1cccc([C@@](O)(C(=O)N(C)CC[C@@H]2CC23CCN(c2ccc(C(=O)N(C)C(C)C)c(Cl)c2)CC3)C(F)(F)F)c1 [Example 7-30, 2-chloro-N-isopropyl-N-methyl-4-((S)-1-(2-((R)-3,3,3-trifluoro-2-hydroxy-2-(3-methoxy-phenyl)-N-methyl-propanamido)ethyl)-6-azaspiro[2.5]octan-6-yl)benzamide]"
No IP,3,343,58,,"CCOc1cccc([C@@](O)(C(=O)NCCCC2CCN(c3ccc(C(=O)N(C)C)c(Cl)n3)CC2)C(F)(F)F)c1 [Example 5-10, (R)-2-chloro-6-(4-(3-(2-(3-ethoxyphenyl)-3,3,3-trifluoro-2-hydroxy-propanamido)propyl)piperidin-1-yl)-N,N-dimethylnicotinamide]"
No IP,12,296,54,,"COc1cccc([C@@](O)(C(=O)N(C)CCCC2CCN(c3ccc(C(N)=O)c(Cl)n3)CC2)C(F)(F)F)c1 [Example 2-16, (R)-2-chloro-6-(4-(3-(3,3,3-trifluoro-2-hydroxy-2-(3-methoxyphenyl)-N-methylpropanamido)propyl)piperidin-1-yl)nicotinamide]"
,26,1910,30,5940,"COc1cccc([C@@](O)(C(=O)N(C)CCCC2CCN(c3cc(Cl)c(C(=O)N(C)C)cn3)CC2)C(F)(F)F)c1 [Example 2-21, (R)-4-chloro-N,N-dimethyl-6-(4-(3-(3,3,3-trifluoro-2-hydroxy-2-(3-methoxyphenyl)-N-methylpropanamido)propyl)piperidin-1-yl)nicotinamide]"
No IP,0,43,38,,"CN(C)C(=O)c1ccc(N2CCC(C)(CCCN(C)C(=O)[C@](O)(c3cccc(OC(F)(F)F)c3)C(F)(F)F)CC2)nc1Cl [Example 9-5, (R)-2-chloro-N,N-dimethyl-6-(4-methyl-4-(3-(3,3,3-trifluoro-2-hydroxy-N-methyl-2-(3-(trifluoromethoxy)phenyl)pro-panamido)propyl)piperidin-1-yl)nicotinamide]"
,10,342,54,4090,"CN(C)C(=O)c1ccc(N2CCC3(CC2)CC3CCN(C)C(=O)[C@@](O)(c2ccccc2)C(F)(F)F)cc1Cl (stereo partly drawn) [Example 7-1, 2-chloro-N,N-dimethyl-4-(1-(2-((S)-3,3,3-trifluoro-2-hydroxy-N-methyl-2-phenylpropanamido)ethyl)-6-azaspiro[2.5]octan-6-yl)benzamide]"
No IP,3,264,69,,"CN(C)C(=O)c1ccc(N2CCC([C@@H]3C[C@H]3CNC(=O)[C@](O)(c3ccccc3)C(F)(F)F)CC2)nc1Cl [Example 15-14, 2-chloro-N,N-dimethyl-6-(4-((1S,2R)-2-(((R)-3,3,3-trifluoro-2-hydroxy-2-phenylpropanamido)methyl)cyclopropyl)piperidin-1-yl)nicotinamide]"
,24,118,80,2860,"COc1ccccc1[C@]1(C(=O)N(C)CCCC2CCN(c3ccc(C(=O)N(C)C)c(Cl)n3)CC2)CCCO1 [Example 1-59, (S)-2-chloro-6-(4-(3-(2-(2-methoxyphenyl)-N-methyltetrahydrofuran-2-carboxamido)propyl)piperidin-1-yl)-N,N-dimethylnicotinamide]"
No IP,0,163,56,,"CCc1cccc([C@](O)(C(=O)N(C)CCCC2CCN(c3ccc(C(=O)N(C)C)c(Cl)n3)CC2)C(F)(F)F)c1 [Example 1-31, (S)-2-chloro-6-(4-(3-(2-(3-ethylphenyl)-3,3,3-trifluoro-2-hydroxy-N-methylpropanamido)propyl)piperidin-1-yl)-N,N-dimethylnicotinamide]"
,40,159,102,1780,"CC(C)[C@@](O)(C(=O)N(C)CCCC1CCN(c2ccc(C(=O)N(C)C)c(Cl)n2)CC1)C(F)(F)F [Example 1-3, (R)-2-chloro-6-(4-(3-(2-hydroxy-N,3-dimethyl-2-(trifluoromethyl)butanamido)propyl)piperidin-1-yl)-N,N-dimethylnicotinamide]"
No IP,17,284,69,,"COc1cccc([C@@](O)(C(=O)NCC[C@H]2CC23CCN(c2ccc(C(=O)N(C)C)c(Cl)c2)CC3)C(F)(F)F)c1 [Example 7-32, 2-chloro-N,N-dimethyl-4-((R)-1-(2-((R)-3,3,3-trifluoro-2-hydroxy-2-(3-methoxyphenyl)propanamido)ethyl)-6-azaspiro[2.5]octan-6-yl)benzamide]"
